In US9663486B2, “Selectively substituted quinoline compounds” (EISAI R&D MANAGEMENT CO., LTD., priority 2013, dated 2017):
pIC50: −log10 of the molar value.

Assays:
human TLR8 = target: T1, human TLR8 (Homo sapiens, UniProt Q9NR97); test: HEK-293 assay format, human TLR8 (CL097); format: cell-based; settings: read-out: HEK/hTLR8 IC50
T1 construct: host or cells: HEK-293 stably expressing hTLR8, then transfected with pNiFty2(NF-kappaB)-luciferase
T1 sequence (Q9NR97 27-1041): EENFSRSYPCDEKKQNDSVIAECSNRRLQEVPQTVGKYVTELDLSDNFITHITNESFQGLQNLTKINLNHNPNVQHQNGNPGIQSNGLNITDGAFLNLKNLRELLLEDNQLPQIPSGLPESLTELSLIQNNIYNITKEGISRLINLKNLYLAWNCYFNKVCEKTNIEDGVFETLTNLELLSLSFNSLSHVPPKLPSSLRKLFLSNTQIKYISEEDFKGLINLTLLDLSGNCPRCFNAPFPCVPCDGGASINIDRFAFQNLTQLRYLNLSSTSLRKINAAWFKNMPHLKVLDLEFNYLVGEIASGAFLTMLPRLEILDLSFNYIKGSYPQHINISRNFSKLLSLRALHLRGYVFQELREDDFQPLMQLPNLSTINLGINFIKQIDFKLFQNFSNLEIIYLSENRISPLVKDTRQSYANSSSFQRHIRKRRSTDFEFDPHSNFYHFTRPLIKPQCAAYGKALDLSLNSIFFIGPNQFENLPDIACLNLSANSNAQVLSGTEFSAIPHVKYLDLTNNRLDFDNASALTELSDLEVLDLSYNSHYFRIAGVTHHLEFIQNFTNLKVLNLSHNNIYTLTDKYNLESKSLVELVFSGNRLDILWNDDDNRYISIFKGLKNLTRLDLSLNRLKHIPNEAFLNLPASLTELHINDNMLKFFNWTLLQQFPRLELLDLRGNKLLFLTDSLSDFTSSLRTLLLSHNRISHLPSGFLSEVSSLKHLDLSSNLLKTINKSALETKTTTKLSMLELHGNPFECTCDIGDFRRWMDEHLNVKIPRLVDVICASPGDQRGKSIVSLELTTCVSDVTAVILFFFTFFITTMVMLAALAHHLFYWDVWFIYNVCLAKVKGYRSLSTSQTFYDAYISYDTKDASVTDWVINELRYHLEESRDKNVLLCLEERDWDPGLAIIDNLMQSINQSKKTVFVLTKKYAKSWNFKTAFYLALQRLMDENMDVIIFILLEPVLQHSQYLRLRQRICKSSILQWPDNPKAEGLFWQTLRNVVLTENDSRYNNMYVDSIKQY
Text: HEK-293 cells (ATCC) were engineered to stably express a NF-kappaB transcription factor inducible E-selectin (ELAM-1) luciferase reporter derived from the plasmid pGL3 (Promega) containing base pairs −2241 bp to −254 bp from the promoter of the human E-selectin gene (Accession No. NM_000450). These cells were then subsequently engineered to stably and individually express human TLR4, TLR7 or TLR9 full-length ORF cDNAs. Human TLR4 cDNA (Accession No. NM_138554) was cloned into pcDNA 3.0 expression vector (Invitrogen). TLR4 transfected cells were also engineered to express human MD-2 co-receptor [MD-2 cDNA (Accession No. NM_015364) was cloned into the pEF-BOS vector] and were supplemented with 10 nM soluble CD14 (R&D Systems) in the media to optimize LPS responsiveness. Human TLR9 cDNA (Accession No. NM_017442) was cloned into the pBluescript II KS vector (Agilent). Human TLR7 cDNA (Accession No. NM_016562) was obtained from OriGene. HEK-293 cells stably expressing human TLR8 (Accession No. NM_138636) or mouse TLR7 (Accession No. NM_133211) were purchased from InvivoGen and were then stably transfected with pNiFty2(NF-kappaB)-luciferase reporter plasmid (InvivoGen). Each cell type was plated in Dulbecco's modified Eagle's medium (DMEM) containing 10% fetal bovine serum (FBS) at a density of 2.22×10^5 cells/ml into a 384-well plate and incubated for 2 days at 37° C., 5% CO2. […]

Human TLR7/8 = test: Human PBMC cell-based assay, TLR7/8 (RNA-Ig), cytokine ELISA; settings: PBMC assay data summary; ligand and analyte not given; read-out: Human PBMCs IC50
Experimental: Human peripheral blood mononuclear cells (PBMC) were isolated from freshly-drawn heparinized (10 USP units/ml, Hospira, Lakeforest, Ill.) healthy donor whole blood by density gradient (Histopaque® 1077, Sigma, Inc., St. Louis, Mo.). Briefly, 25 ml blood was diluted with 15 ml PBS (without Ca^2+, Mg^2+) in a 50 ml conical tube, and 12 ml Histopaque was underlaid using a spinal needle. Tubes were centrifuged for 45 minutes at 1200 rpm (350×g), and PBMC were collected from the buffy coat. Cells were then washed twice in PBS, and red blood cells were lysed by suspension in 5 ml ammonium chloride solution (1× Red Blood Cell Lysis Buffer, eBioscience) for 5 minutes at room temperature. After a final wash in PBS, PBMC were resuspended at a final concentration of 2×10^6/ml in RPMI-1640 media with L-glutamine (Invitrogen) and supplemented with 25 mM HEPES (Mediatech, Inc, Manassas Va.), 10% fetal bovine serum (HyClone, Logan, Utah), and Penicillin-Streptomycin-Glutamine (Mediatech) and plated at 100 ul/well (2×10^5 cells/well) in tissue culture treated 96-well plates (Falcon).
Antagonist compounds solubilized and serial diluted in 100% DMSO were added in triplicate to cells to yield a final concentration of 0.1% DMSO (v/v). Hydroxychloroquine (Acros Organics) solubilized and serial diluted in PBS was added in triplicate to cells. PBMC were incubated with antagonist compounds or HCQ for 30 minutes at 37° C., 5% CO2 before adding various TLR agonist reagents in 100 ul complete media per well as follows (final concentrations indicated): R848 (Resiquimod; GLSynthesis, Worcester, Mass.) at 1 uM for TLR7 and TLR8, Pam3CSK4 (InvivoGen) at 50 ng/ml for TLR1/2, LPS (Sigma) at 10 ng/ml for TLR4, and CpG-2216 (InvivoGen) at 5 ug/ml for TLR9. […] The resulting “RNA-Ig” stimulus was incubated at room temperature for 15-30 minutes before adding to cells. PBMC were incubated with the various TLR agonists for 20 hours at 37° C., 5% CO2. Cell culture supernatants were collected, and levels of various human cytokines were assessed as indicated by standard ELISA procedure according to the manufacturer's recommended protocol (BD Biosciences, Inc., San Diego, Calif.).

Human TLR9 = target: T2, Human TLR9 (Homo sapiens, UniProt Q9NR96); test: Human PBMC cell-based assay, CpG-ODN stimulation, IL-6; design: endogenous in cells; host or cells: primary human PBMC from healthy donors; settings: Hu PBMC; ligand CpG-ODN
T2 sequence (Q9NR96 26-1032): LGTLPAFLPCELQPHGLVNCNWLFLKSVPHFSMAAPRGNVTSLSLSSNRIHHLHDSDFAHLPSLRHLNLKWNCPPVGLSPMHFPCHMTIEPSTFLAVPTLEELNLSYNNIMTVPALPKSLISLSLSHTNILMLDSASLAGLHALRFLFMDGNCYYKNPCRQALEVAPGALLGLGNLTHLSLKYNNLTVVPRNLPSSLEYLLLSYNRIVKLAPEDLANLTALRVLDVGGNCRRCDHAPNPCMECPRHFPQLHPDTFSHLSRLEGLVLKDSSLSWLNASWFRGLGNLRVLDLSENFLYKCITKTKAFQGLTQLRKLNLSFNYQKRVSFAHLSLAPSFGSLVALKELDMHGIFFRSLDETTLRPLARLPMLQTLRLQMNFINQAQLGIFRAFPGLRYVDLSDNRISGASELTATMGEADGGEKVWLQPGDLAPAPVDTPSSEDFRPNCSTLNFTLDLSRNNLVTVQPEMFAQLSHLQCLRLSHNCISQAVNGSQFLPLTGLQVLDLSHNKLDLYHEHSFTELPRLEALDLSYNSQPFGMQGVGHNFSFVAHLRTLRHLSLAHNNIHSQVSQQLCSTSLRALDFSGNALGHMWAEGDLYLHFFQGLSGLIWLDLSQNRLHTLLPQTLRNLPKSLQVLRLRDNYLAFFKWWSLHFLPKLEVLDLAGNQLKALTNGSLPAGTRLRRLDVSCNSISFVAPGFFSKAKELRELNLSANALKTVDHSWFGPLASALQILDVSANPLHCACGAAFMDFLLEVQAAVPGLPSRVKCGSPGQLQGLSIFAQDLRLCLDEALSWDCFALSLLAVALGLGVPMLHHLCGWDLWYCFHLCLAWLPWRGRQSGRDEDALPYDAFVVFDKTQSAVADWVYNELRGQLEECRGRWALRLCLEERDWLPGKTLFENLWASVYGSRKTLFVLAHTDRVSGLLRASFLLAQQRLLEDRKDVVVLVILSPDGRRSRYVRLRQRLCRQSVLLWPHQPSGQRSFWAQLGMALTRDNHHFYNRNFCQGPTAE
Experimental: (§1) Human peripheral blood mononuclear cells (PBMC) were isolated from freshly-drawn heparinized (10 USP units/ml, Hospira, Lakeforest, Ill.) healthy donor whole blood by density gradient (Histopaque® 1077, Sigma, Inc., St. Louis, Mo.). Briefly, 25 ml blood was diluted with 15 ml PBS (without Ca^2+, Mg^2+) in a 50 ml conical tube, and 12 ml Histopaque was underlaid using a spinal needle. Tubes were centrifuged for 45 minutes at 1200 rpm (350×g), and PBMC were collected from the buffy coat. Cells were then washed twice in PBS, and red blood cells were lysed by suspension in 5 ml ammonium chloride solution (1× Red Blood Cell Lysis Buffer, eBioscience) for 5 minutes at room temperature. […]
(§2) Antagonist compounds solubilized and serial diluted in 100% DMSO were added in triplicate to cells to yield a final concentration of 0.1% DMSO (v/v). […] Cell culture supernatants were collected, and levels of various human cytokines were assessed as indicated by standard ELISA procedure according to the manufacturer's recommended protocol (BD Biosciences, Inc., San Diego, Calif.).

Human TLR4 = Human TLR4 (Homo sapiens, UniProt O00206); test: Human PBMC cell-based assay, LPS stimulation, IL-6; design: endogenous in cells; host or cells: primary human PBMC from healthy donors; settings: Hu PBMC; ligand LPS
Chain of Human TLR4 (O00206 24-839): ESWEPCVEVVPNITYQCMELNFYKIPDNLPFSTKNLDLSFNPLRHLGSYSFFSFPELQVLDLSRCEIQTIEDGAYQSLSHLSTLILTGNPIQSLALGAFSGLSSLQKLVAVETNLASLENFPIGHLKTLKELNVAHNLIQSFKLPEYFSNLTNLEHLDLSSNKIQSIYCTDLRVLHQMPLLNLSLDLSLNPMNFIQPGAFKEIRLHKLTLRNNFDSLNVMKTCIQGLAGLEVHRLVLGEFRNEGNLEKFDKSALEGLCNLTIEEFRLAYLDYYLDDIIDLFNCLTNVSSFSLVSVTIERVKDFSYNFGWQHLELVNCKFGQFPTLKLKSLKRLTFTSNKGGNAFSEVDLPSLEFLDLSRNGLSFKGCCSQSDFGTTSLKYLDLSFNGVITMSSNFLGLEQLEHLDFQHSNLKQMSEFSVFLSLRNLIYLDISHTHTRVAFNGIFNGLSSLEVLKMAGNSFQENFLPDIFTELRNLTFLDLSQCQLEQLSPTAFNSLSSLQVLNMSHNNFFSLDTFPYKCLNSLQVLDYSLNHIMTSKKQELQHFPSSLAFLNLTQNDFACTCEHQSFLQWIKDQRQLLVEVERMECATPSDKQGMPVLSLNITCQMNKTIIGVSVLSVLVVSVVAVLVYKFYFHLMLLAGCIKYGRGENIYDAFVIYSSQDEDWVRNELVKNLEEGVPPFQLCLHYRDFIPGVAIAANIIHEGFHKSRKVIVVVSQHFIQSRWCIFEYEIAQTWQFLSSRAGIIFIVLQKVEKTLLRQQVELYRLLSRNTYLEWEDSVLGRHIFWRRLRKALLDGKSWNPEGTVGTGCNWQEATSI
Chain of Human TLR4 (Q9Y6Y9 19-160 partner): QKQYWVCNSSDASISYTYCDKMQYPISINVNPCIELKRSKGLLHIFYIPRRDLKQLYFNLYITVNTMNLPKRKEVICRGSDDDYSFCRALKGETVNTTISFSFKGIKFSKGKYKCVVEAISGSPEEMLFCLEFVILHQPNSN
Experimental: as §1, §2

| pIC50 (Human TLR9) | pIC50 (Human TLR4) | SMILES | pIC50 (human TLR8) | pIC50 (Human TLR7/8) |
| --- | --- | --- | --- | --- |
| – | – | N#Cc1ccc(N2CCC[C@@H](N)C2)c2cccnc12 [ER-878921] | 7.13 | 7.05 |
| 6.52 to 6.82 | < 5.00 | CCN(CCO)CCCC(C)Nc1ccnc2cc(Cl)ccc12 (stereo not shown) [HCQ, Hydroxychloroquine] | – | – |
